Assay results as given in patent US11566029B2, “Pyrazolo[1,5-a]pyrimidine-5,7-diamine compounds as CDK inhibitors and their therapeutic use” (CANCER RESEARCH TECHNOLOGY LIMITED, priority 2014, dated 2023).
Structures can show the parent of a compound that is named as a salt.

What was measured:
CDK2/cycA1 = target: T1, CDK2/cycA1 (Homo sapiens, UniProt P24941); experiment: In vitro kinase assay (PKLight luciferase ATP readout), CDK2; type: biochemical; settings: ATP at Km; read-out: In vitro Kinase Inhibition CDK2 IC50
T1 construct: purchased ProQinase GmbH
Description: (§1) Purified recombinant CDK1/cycA1, CDK2/cycA1, CDK4/cycD1, CDK5/p35NCK, CDK6/cycD1, CDK7/CycH/MAT1, and CDK9/CycT1 were purchased from ProQinase GmbH. Kinase assays were performed according to manufacturer's protocols. Rb-CTF (ProQinase GmbH) (cat number: 0040-0000-6) was used as the kinase substrate for CDK1, CDK2, CDK4, and CDK6 kinases. […] A luciferase assay (PKLight assay; Cambrex) was used to determine ATP remaining at the end of the kinase reaction, which provides a measure of kinase activity, according to the manufacturer's protocols.
(§2) Kinase assays were carried out by incubation of increasing amounts of test compound with purified recombinant CDK-Cyclin complex, followed by measurement of free ATP remaining in the reaction using the luciferase assay kit (PKLight, Cambrex) which therefore provided a measure of inhibition for the specific CDK.
(§3) 5 μL of 1× kinase buffer (Cell Signalling Technologies) was mixed with 200 ng CDK1, 200 ng CDK2, 50 ng CDK4, 100 ng CDK5, or 200 ng CDK6 with 5 μg Rb-CTF and 300 ng CDK7 or 200 ng CDK9 with 500 μM RNA Poll II CTD peptide. […] The mixture was incubated at 30° C. for 30 minutes. The reaction is stopped with 20 μL of Stop Solution (provided in the PKLight kit) for 10 minutes at room temperature. Then 40 μL of the luciferase mix was added to the reaction mixture which was incubated for a further 10 minutes at room temperature and measured using the Tecan Infinite 2000 plate reader. GraphPad Prism Software was used to generate standard curve and determine the IC50's for each CDK.

CDK1/cycA1 = target: T2, CDK1/cycA1 (Homo sapiens, UniProt P06493); experiment: In vitro kinase assay (PKLight luciferase ATP readout), CDK1; type: biochemical; settings: ATP at Km; read-out: In vitro Kinase Inhibition CDK1 IC50
T2 construct: purchased ProQinase GmbH
Description: as §1, §2, §3

HCT116 cells = experiment: Cell growth inhibition assay (sulforhodamine B), HCT116; type: cell-based; settings: Homo sapiens, HCT-116; 72 hours, SRB assay; read-out: Growth Inhibition, GI50 HCT116
Description: (§4) All cells were purchased from the American Type Culture Collection (ATCC) and MCF7 cells were routinely cultured in Dulbecco's Modified Eagle's Medium (DMEM) supplemented with 10% fetal calf serum (FCS) (First Link) and HCT116 cells were routinely cultured in Roswell Park Memorial Instititute Medium (RPMI) supplemented with 10% FCS. Cell growth was assessed using a known sulforhodamine B assay (see, e.g., Skehan et al., 1990).
(§5) MCF-7 cells purchased from ATCC (USA) were routinely passaged in DMEM, supplemented with 10% FCS and HCT116 cells purchased from ATCC (USA) were routinely passaged in RPMI supplemented with 10% FCS and kept in a 37° C. incubator with 5% CO2. The growth assay for both cell lines was performed in the appropriate media using the exact same protocol as described here. For the growth assay, 5000 cells were seeded into each well of 96-well plates in DMEM containing 10% FCS. Test compounds prepared in DMSO were added to the medium at concentrations ranging from 0.00038-100 μM. The cells were incubated for a further 72 hours, at which time they were fixed by the addition of 100 μL/well of ice-cold 40% trichloroacetic acid (TCA). The plates were left for 1 hour at 4° C., washed in water and 100 μL of 0.4% (w/v) sulforhodamine (SRB; Sigma-Aldrich, UK) prepared in 1% acetic acid was added. Plates were washed in 1% acetic acid to remove excess SRB reagent, air dried, and bound dye was solubilized by the addition of 100 μL of 10 mM tris base. The plates were read at 492 nm using a plate reader.

CDK7/CycH/MAT1 = target: T3, CDK7/CycH/MAT1 (Homo sapiens, UniProt P50613); experiment: In vitro kinase assay (PKLight luciferase ATP readout), CDK7; type: biochemical; settings: for IC50: ATP at Km, read-out: In vitro Kinase Inhibition CDK7 IC50; for Selectivity CDK1/CDK7: ratio of CDK1 IC50 to CDK7 IC50; for Selectivity CDK2/CDK7: ratio of CDK2 IC50 to CDK7 IC50
T3 construct: purchased ProQinase GmbH
T3 sequence (P50613 whole entry): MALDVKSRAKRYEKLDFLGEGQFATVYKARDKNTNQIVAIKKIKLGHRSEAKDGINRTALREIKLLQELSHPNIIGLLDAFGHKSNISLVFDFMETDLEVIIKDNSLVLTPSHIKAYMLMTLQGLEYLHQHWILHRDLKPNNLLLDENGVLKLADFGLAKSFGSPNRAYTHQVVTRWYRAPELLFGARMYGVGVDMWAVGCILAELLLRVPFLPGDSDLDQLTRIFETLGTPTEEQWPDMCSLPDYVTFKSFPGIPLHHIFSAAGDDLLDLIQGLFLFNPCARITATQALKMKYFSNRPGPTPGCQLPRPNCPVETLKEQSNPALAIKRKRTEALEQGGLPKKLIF
T3 sequence (P51946 whole entry partner): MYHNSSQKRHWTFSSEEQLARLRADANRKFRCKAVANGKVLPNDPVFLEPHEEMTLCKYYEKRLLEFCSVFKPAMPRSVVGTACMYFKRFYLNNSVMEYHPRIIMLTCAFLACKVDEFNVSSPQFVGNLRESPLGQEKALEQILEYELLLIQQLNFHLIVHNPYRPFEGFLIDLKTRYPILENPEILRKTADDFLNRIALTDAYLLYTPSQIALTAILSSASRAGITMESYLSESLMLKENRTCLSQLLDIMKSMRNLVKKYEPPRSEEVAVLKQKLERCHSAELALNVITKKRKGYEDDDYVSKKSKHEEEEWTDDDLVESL
T3 sequence (P51948 whole entry partner): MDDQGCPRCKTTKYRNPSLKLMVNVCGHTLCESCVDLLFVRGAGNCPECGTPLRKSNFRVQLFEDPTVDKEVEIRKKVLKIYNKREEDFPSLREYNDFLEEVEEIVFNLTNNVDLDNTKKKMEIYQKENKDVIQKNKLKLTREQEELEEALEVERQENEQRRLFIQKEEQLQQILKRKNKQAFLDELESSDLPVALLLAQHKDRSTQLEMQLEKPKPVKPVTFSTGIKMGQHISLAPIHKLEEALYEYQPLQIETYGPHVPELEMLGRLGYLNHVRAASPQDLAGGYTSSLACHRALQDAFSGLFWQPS
Description: as §1, §2, §3

MCF7 cells = experiment: Cell growth inhibition assay (sulforhodamine B), MCF7; type: cell-based; settings: Homo sapiens, 72 hours, SRB assay, read-out: Growth Inhibition, GI50 MCF7
Description: as §4, §5

Structure (SMILES)	IC50 (CDK2/cycA1)	IC50 (CDK1/cycA1)	GI50 (HCT116 cells)	IC50 (CDK7/CycH/MAT1)	Selectivity CDK1/CDK7 (CDK7/CycH/MAT1)	Selectivity CDK2/CDK7 (CDK7/CycH/MAT1)	GI50 (MCF7 cells)
CC(C)c1cnn2c(NCc3ccccc3)cc(NC[C@]3(O)CCNC[C@H]3O)nc12 (racemic) [PPDA-002, (3R,4R)-4-((7-(Benzylamino)-3-iso-propyl-pyrazolo[1,5-a]pyrimidin-5-ylamino)methyl)piperidine-3,4-diol hydrochloride]	2.03 µM	1.38 µM	5.1 µM	0.018 µM	77 fold	113 fold	1.5 µM
CC(C)c1cnn2c(NCC3CCCCC3)cc(NC[C@]3(O)CCNC[C@H]3O)nc12 (racemic) [PPDA-014]	0.481 µM	8.68 µM	53.5 µM	0.975 µM	8.9 fold	0.5 fold	45.6 µM
CC(C)c1cnn2c(NCc3ccccc3)cc(NCC3(CO)CCNC3)nc12 (racemic) [PPDA-018, (3-((7-(Benzylamino)-3-iso-propylpyrazolo [1,5-a]pyrimidin-5ylamino)methyl)pyrrolidin-3-yl)methanol hydrochloride]	0.001 µM	0.041 µM	0.9 µM	0.014 µM	2.9 fold	0.1 fold	0.1 µM
CC(C)c1cnn2c(NCC3CCCCC3)cc(NC[C@@]3(CO)CCNC3)nc12 (racemic) [PPDA-019]	0.009 µM	0.08 µM	0.4 µM	0.029 µM	2.8 fold	0.3 fold	0.3 µM
CC(C)c1cnn2c(NCc3ccncc3)cc(NC[C@@]3(CO)CCNC3)nc12 (racemic) [PPDA-020]	0.022 µM	0.441 µM	1.5 µM	0.044 µM	10 fold	0.5 fold	0.6 µM
CC(C)c1cnn2c(NCc3ccccc3Cl)cc(NC[C@@]3(CO)CCNC3)nc12 (racemic) [PPDA-021]	0.022 µM	0.177 µM	1.2 µM	0.081 µM	2.2 fold	0.3 fold	0.2 µM
CC(C)c1cnn2c(NCc3ccccc3)cc(N[C@H]3CNCC3O)nc12 (stereo in doubt) [PPDA-015, (3S,4S)-4-(7-(Benzylamino)-3-iso-propyl-pyrazolo[1,5-a]pyrimidin-5-ylamino)-pyrrolidin-3-ol hydrochloride]	1.29 µM	3.95 µM	12.7 µM	0.027 µM	146 fold	48 fold	4.1 µM
CC(C)c1cnn2c(NCc3ccncc3)cc(NC[C@H]3CCNC[C@@H]3O)nc12 [PPDA-003, (3R,4R)-4-((3-iso-Propyl-7-(pyridin-4-ylmethylamino)pyrazolo[1,5-a]pyrimidin-5-ylamino)methyl)piperidin-3-ol hydrochloride]	0.114 µM	1.91 µM	–	0.047 µM	41 fold	2.5 fold	–
CC(C)c1cnn2c(NCC3CCCCC3)cc(NC[C@H]3CCNC[C@@H]3O)nc12 [PPDA-004]	1.29 µM	1.82 µM	2.5 µM	0.94 µM	1.9 fold	1.4 fold	2.7 µM
CC(C)c1cnn2c(Nc3ccc(S(=O)(=O)N(C)C)cc3)cc(NC[C@H]3CCNC[C@@H]3O)nc12 [PPDA-005]	0.038 µM	0.213 µM	7.2 µM	0.111 µM	1.9 fold	0.3 fold	4.22 µM
CC(C)c1cnn2c(NC3CCN(S(=O)(=O)c4ccc(F)cc4)CC3)cc(NC[C@H]3CCNC[C@@H]3O)nc12 [PPDA-006]	0.178 µM	0.405 µM	10 µM	0.04 µM	10 fold	4.5 fold	8.4 µM
CC(C)c1cnn2c(NCc3ccccc3)cc(NC3CNCC[C@]3(O)CO)nc12 (stereo partly shown) [PPDA-025]	–	–	23.7 µM	–	3.7 fold	1.4 fold	10.1 µM
CC(C)c1cnn2c(NCc3ccccc3)cc(N[C@@H]3CNCC[C@]3(O)CO)nc12 [PPDA-025]	0.106 µM	0.285 µM	–	0.077 µM	–	–	–
CO[C@H]1CN[C@H](CNc2cc(NCc3ccccc3)n3ncc(C(C)C)c3n2)C1 [PPDA-029]	2.84 µM	–	> 100 µM	1.01 µM	–	2.8 fold	17.6 µM
CC(C)c1cnn2c(NCc3ccccc3)cc(NC[C@@H]3C[C@@H](O)CN3)nc12 [PPDA-030]	0.999 µM	–	> 100 µM	0.059 µM	–	17 fold	20.2 µM
CC(C)c1cnn2c(NCc3ccccc3)cc(NC[C@H]3NCC[C@@H]3O)nc12 [PPDA-031]	0.393 µM	–	20.4 µM	0.473 µM	–	0.8 fold	5.6 µM
CC(C)c1cnn2c(NCc3ccccc3)cc(NC[C@H]3NC[C@H](O)[C@@H]3O)nc12 [PPDA-032]	1.5 µM	–	–	0.305 µM	–	4.9 fold	–
CC(C)c1cnn2c(NCc3ccccc3)cc(NCC3CCNCC3)nc12 [XX-01, reference compound]	–	–	18.7 µM	0.31 µM	–	–	12.2 µM
CC(C)c1cnn2c(NCc3ccccc3)cc(NC[C@H]3CCCC[C@@H]3O)nc12 [XX-02, reference compound]	–	–	> 100 µM	0.687 µM	–	–	47 µM
